{
  "source": "patent US9278996B2",
  "about": "“Dolastatin-10 derivative, method of producing the same and anticancer drug composition containing the same” (CELLTRION, INC., priority 2012, dated 2016)",
  "data": [
    {"test_system": "breast cancer (BT-474)", "assay": "Anticancer activity assay (WST-8 cell growth), BT-474", "assay_type": "cell-based", "conditions": "Homo sapiens, BT-474, 96 h, read-out: IC50 (nM) BT-474", "protocol": "The compounds of the present invention were assayed for inhibitory activity against 7 cancer cell lines as breast cancer (BT-474), human epithelial cancer (A-431), non-small cell lung cancer (NCI-H460), colon cancer (HT-29), colon cancer (SW-620), breast cancer (MDA-MB-231) and breast cancer (MCF-7).\nBriefly, a suspension of each cancer cell line was serially diluted, and plated at a density of 2˜3×10^3 cells/well into 96-well microplates, followed by incubation at 37° C. for 4 day in a 5% CO2 atmosphere. Cell growth in a monolayer was measured using WST-8 reagemt (Dojindo, Japan).\nIC50 values of the compounds against the cancer cell lines were calculated as compound concentrations at which the cells were grown by 50% OD of the control.", "units": {"IC50": "nM"}, "values": [
      {"smiles": "CC[C@H](C)[C@@H]([C@@H](CC(=O)N1C[C@H](OC)C[C@H]1[C@H](OC)[C@@H](C)C(=O)N[C@H](C)C(N)c1ccccc1)OC)N(C)C(=O)[C@@H](NC(=O)[C@H](C(C)C)N(C)C)C(C)C", "note": "(mixture of isomers) [Compound I-36, (2S)—N-((3R,4S)-1-((2S)-2-((1R,2R)-3-(((2R)-1-amino-1-phenylpropan-2-yl)amino)-1-methoxy-2-methyl-3-oxopropyl)-4-methoxypyrrolidin-1-yl)-3-methoxy-5-methyl-1-oxoheptan-4-yl)-2-((S)-2-(dimethylamino)-3-methylbutaneamido)-N,3-dimethylbutanamide]", "IC50": 0.51},
      {"smiles": "CC[C@H](C)[C@@H]([C@@H](CC(=O)N1C[C@H](OC)C[C@H]1[C@H](OC)[C@@H](C)C(=O)N[C@@H](C)C(N)c1ccccc1)OC)N(C)C(=O)[C@@H](NC(=O)[C@H](C(C)C)N(C)C)C(C)C", "note": "(mixture of isomers) [Compound I-37, (2S)—N-((3R,4S)-1-((2S,4R)-2-((1R,2R)-3-(((2S)-1-amino-1-phenylpropan-2-yl)amino)-1-methoxy-2-methyl-3-oxopropyl)-4-methoxypyrrolidin-1-yl)-3-methoxy-5-methyl-1-oxoheptan-4-yl)-2-((S)-2-(dimethylamino)-3-methylbutaneamido)-N,3-dimethylbutanamide]", "IC50": 2.82},
      {"smiles": "CC[C@H](C)[C@@H]([C@@H](CC(=O)N1C[C@H](OC)C[C@H]1[C@H](OC)[C@@H](C)C(=O)N[C@H](C)C(=O)c1ccccc1)OC)N(C)C(=O)[C@@H](NC(=O)[C@@H](NC)C(C)C)C(C)C", "note": "(stereo in doubt) [Compound I-6, (2 S)—N-((3R,4S)-3-methoxy-1-((2R,4R)-4-methoxy-2-((1R,2R)-1-methoxy-2-methyl-3-oxo-3-(((R)-1-oxo-1-phenylpropan-2-yl)amino)propyl)pyrrolidin-1-yl)-5-methyl-1-oxoheptan-4-yl)-N,3-dimethyl-2-((S)-3-methyl-2-(methylamino)butaneamido)butanamide]", "IC50": 0.32},
      {"smiles": "CC[C@H](C)[C@@H]([C@@H](CC(=O)N1C[C@H](OC)C[C@@H]1[C@H](OC)[C@@H](C)C(=O)NCCc1c(F)cccc1F)OC)N(C)C(=O)[C@@H](NC(=O)[C@@H](NC)C(C)C)C(C)C", "note": "[Compound I-1, (S)—N-((3R,4S,5S)-1-((2R,4R)-2-((1R,2R)-3-((2,6-difluorophenethyl)amino)-1-methoxy-2-methyl-3-oxopropyl)-4-methoxypyrrolidin-1-yl)-3-methoxy-5-methyl-1-oxoheptan-4-yl)-N,3-dimethyl-2-((S)-3-methyl-2-(methylamino)butaneamido)butanamide]", "IC50": 0.12},
      {"smiles": "CC[C@H](C)[C@@H]([C@@H](CC(=O)N1C[C@H](OC)CC1[C@H](OC)[C@@H](C)C(=O)NCCc1cccc(F)c1)OC)N(C)C(=O)[C@@H](NC(=O)[C@@H](NC)C(C)C)C(C)C", "note": "(stereo partly drawn) [Compound I-2]", "IC50": 0.7},
      {"smiles": "CC[C@H](C)[C@@H]([C@@H](CC(=O)N1C[C@H](OC)C[C@H]1[C@H](OC)[C@@H](C)C(=O)N[C@@H](C)C(=O)c1ccccc1)OC)N(C)C(=O)[C@@H](NC(=O)[C@@H](NC)C(C)C)C(C)C", "note": "[Compound I-7, (2 S)—N-((3R,4S)-3-methoxy-1-((2S,4R)-4-methoxy-2-((1R,2R)-1-methoxy-2-methyl-3-oxo-3-(((S)-1-oxo-1-phenylpropan-2-yl)amino)propyl)pyrrolidin-1-yl)-5-methyl-1-oxoheptan-4-yl)-N,3-dimethyl-2-((S)-3-methyl-2-(methylamino)butaneamido)butanamide]", "IC50": 0.62},
      {"smiles": "CC[C@H](C)[C@@H]([C@@H](CC(=O)N1C[C@@H](OC)C[C@@H]1[C@H](OC)[C@@H](C)C(=O)NCCc1ccccc1)OC)N(C)C(=O)[C@@H](NC(=O)[C@H](C(C)C)N(C)C)C(C)C", "note": "[Compound I-10, (S)-2-((S)-2-(dimethylamino)-3-methylbutaneamido)-N-((3R,4S,5S)-3-methoxy-1-((2R,4S)-4-methoxy-2-((1R,2R)-1-methoxy-2-methyl-3-oxo-3-(phenethylamino)propyl)pyrrolidin-1-yl)-5-methyl-1-oxoheptan-4-yl)-N,3-dimethylbutanamide]", "IC50": 0.24},
      {"smiles": "CC[C@H](C)[C@@H]([C@@H](CC(=O)N1C[C@H](OC)C[C@@H]1[C@H](OC)[C@@H](C)C(=O)N[C@H](C)C(=O)c1ccc(F)cc1)OC)N(C)C(=O)[C@@H](NC(=O)[C@@H](NC)C(C)C)C(C)C", "note": "[Compound I-11, (S)—N-((3R,4S,5 S)-1-((2R,4R)-2-((1R,2R)-3-(((R)-1-(4-fluorophenyl)-1-oxopropan-2-yl)amino)-1-methoxy-2-methyl-3-oxopropyl)-4-methoxypyrrolidin-1-yl)-3-methoxy-5-methyl-1-oxoheptan-4-yl)-N,3-dimethyl-2-((S)-3-methyl-2-(methylamino)butaneamido)butanamide]", "IC50": 0.78},
      {"smiles": "CC[C@H](C)[C@@H]([C@@H](CC(=O)N1C[C@H](OC)C[C@@H]1[C@H](OC)[C@@H](C)C(=O)N[C@H](C)C(=O)c1cccc(OC)c1)OC)N(C)C(=O)[C@@H](NC(=O)[C@@H](NC)C(C)C)C(C)C", "note": "[Compound I-14, (S)—N-((3R,4S,5S)-3-methoxy-1-((2R,4R)-4-methoxy-2-((1R,2R)-1-methoxy-3-(((R)-1-(3-methoxyphenyl)-1-oxopropan-2-yl)amino)-2-methyl-3-oxopropyl)pyrrolidin-1-yl)-5-methyl-1-oxoheptan-4-yl)-N,3-dimethyl-2-((S)-3-methyl-2-(methylamino)butaneamido)butanamide]", "IC50": 0.29},
      {"smiles": "CC[C@H](C)[C@@H]([C@@H](CC(=O)N1C[C@H](OC)C[C@@H]1[C@H](OC)[C@@H](C)C(=O)N[C@H](C)C(=O)c1ccc(OC)cc1)OC)N(C)C(=O)[C@@H](NC(=O)[C@@H](NC)C(C)C)C(C)C", "note": "[Compound I-15, (S)—N-((3R,4S,5S)-3-methoxy-1-((2R,4R)-4-methoxy-2-((1R,2R)-1-methoxy-3-(((R)-1-(4-methoxyphenyl)-1-oxopropan-2-yl)amino)-2-methyl-3-oxopropyl)pyrrolidin-1-yl)-5-methyl-1-oxoheptan-4-yl)-N,3-dimethyl-2-((S)-3-methyl-2-(methylamino)butaneamido)butanamide]", "IC50": 0.51},
      {"smiles": "CC[C@H](C)[C@@H]([C@@H](CC(=O)N1C[C@H](OC)C[C@@H]1[C@H](OC)[C@@H](C)C(=O)N[C@@H](C)C(=O)c1cc(F)cc(F)c1)OC)N(C)C(=O)[C@@H](NC(=O)[C@@H](NC)C(C)C)C(C)C", "note": "[Compound I-16, (S)—N-((3R,4S,5S)-1-((2R,4R)-2-((1R,2R)-3-(((S)-1-(3,5-difluorophenyl)-1-oxopropan-2-yl)amino)-1-methoxy-2-methyl-3-oxopropyl)-4-methoxypyrrolidin-1-yl)-3-methoxy-5-methyl-1-oxoheptan-4-yl)-N,3-dimethyl-2-((S)-3-methyl-2-(methylamino)butaneamido)butanamide]", "IC50": 0.65},
      {"smiles": "CC[C@H](C)[C@@H]([C@@H](CC(=O)N1C[C@H](OC)C[C@@H]1[C@H](OC)[C@@H](C)C(=O)N[C@@H](C)C(=O)c1c(F)cccc1F)OC)N(C)C(=O)[C@@H](NC(=O)[C@@H](NC)C(C)C)C(C)C", "note": "[Compound I-17, (S)—N-((3R,4S,5S)-1-((2R,4R)-2-((1R,2R)-3-(((S)-1-(2,6-difluorophenyl)-1-oxopropan-2-yl)amino)-1-methoxy-2-methyl-3-oxopropyl)-4-methoxypyrrolidin-1-yl)-3-methoxy-5-methyl-1-oxoheptan-4-yl)-N,3-dimethyl-2-((S)-3-methyl-2-(methylamino)butaneamido)butanamide]", "IC50": 0.25},
      {"smiles": "CC[C@H](C)[C@@H]([C@@H](CC(=O)N1C[C@H](OC)C[C@@H]1[C@H](OC)[C@@H](C)C(=O)N[C@H](C)C(=O)c1c(F)cccc1F)OC)N(C)C(=O)[C@@H](NC(=O)[C@@H](NC)C(C)C)C(C)C", "note": "[Compound I-18, (S)—N-((3R,4S,5S)-1-((2R,4R)-2-((1R,2R)-3-(((R)-1-(2,6-difluorophenyl)-1-oxopropan-2-yl)amino)-1-methoxy-2-methyl-3-oxopropyl)-4-methoxypyrrolidin-1-yl)-3-methoxy-5-methyl-1-oxoheptan-4-yl)-N,3-dimethyl-2-((S)-3-methyl-2-(methylamino)butaneamido)butanamide]", "IC50": 0.88},
      {"smiles": "CC[C@H](C)[C@@H]([C@@H](CC(=O)N1C[C@H](OC)C[C@@H]1[C@H](OC)[C@@H](C)C(=O)N[C@H](C)/C(=N\\O)c1cccc(OC)c1)OC)N(C)C(=O)[C@@H](NC(=O)[C@@H](NC)C(C)C)C(C)C", "note": "[Compound I-19, (S)—N-((3R,4S,5 S)-1-((2R,4R)-2-((1R,2R)-3-(((R,Z)-1-(hydroxyimino)-1-(3-methoxyphenyl)propan-2-yl)amino)-1-methoxy-2-methyl-3-oxopropyl)-4-methoxypyrrolidin-1-yl)-3-methoxy-5-methyl-1-oxoheptan-4-yl)-N,3-dimethyl-2-((S)-3-methyl-2-(methylamino)butaneamido)butanamide]", "IC50": 0.09},
      {"smiles": "CC[C@H](C)[C@@H]([C@@H](CC(=O)N1C[C@H](OC)C[C@@H]1[C@H](OC)[C@@H](C)C(=O)N[C@H](C)C(=NO)c1cccc(OC)c1)OC)N(C)C(=O)[C@@H](NC(=O)[C@H](C(C)C)N(C)C)C(C)C", "note": "[Compound I-20, (S)-2-((S)-2-(dimethylamino)-3-methylbutaneamido)-N-((3R,4S,5S)-1-((2R,4R)-2-((1R,2R)-3-(((R)-1-(hydroxyimino)-1-(3-methoxyphenyl)propan-2-yl)amino)-1-methoxy-2-methyl-3-oxopropyl)-4-methoxypyrrolidin-1-yl)-3-methoxy-5-methyl-1-oxoheptan-4-yl)-N,3-dimethylbutanamide]", "IC50": 0.47}
    ]}
  ]
}
